In patent publication US8394952B2 (Vertex Pharmaceuticals Incorporated, priority 2006, dated 2013):

Each compound was assayed against T1, Plk1 (Homo sapiens, UniProt P53350) (assay: biochemical). Settings: not given.
T1 sequence (P53350 20-338): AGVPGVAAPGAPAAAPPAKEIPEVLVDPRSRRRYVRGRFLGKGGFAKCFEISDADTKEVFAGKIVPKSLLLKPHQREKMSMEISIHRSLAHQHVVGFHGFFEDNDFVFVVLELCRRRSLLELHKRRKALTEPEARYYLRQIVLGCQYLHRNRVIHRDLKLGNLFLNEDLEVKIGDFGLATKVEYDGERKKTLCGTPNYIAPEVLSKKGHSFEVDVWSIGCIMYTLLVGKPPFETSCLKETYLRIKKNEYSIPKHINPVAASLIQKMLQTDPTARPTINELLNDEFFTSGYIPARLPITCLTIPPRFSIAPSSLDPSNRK

Compared with `COc1cc(C(=O)NC2CCN(C)CC2)ccc1Nc1ncc2c(n1)N(C)CCC(=O)N2C` [Compound I-14, 4-(6,7,8,9-tetrahydro-5,9-dimethyl-6-oxo-5H-pyrimido[4,5-b][1,4]diazepin-2-ylamino)-3-methoxy-N-(1-methylpiperidin-4-yl)benzamide], `COc1cc(C(=O)NC2CN(C)C2)ccc1Nc1ncc2c(n1)N(C1CCCC1)CC(C)(C)C(=O)N2C` [Compound I-25, 4-(9-cyclopentyl-6,7,8,9-tetrahydro-5,7,7-trimethyl-6-oxo-5H-pyrimido[4,5-b][1,4]diazepin-2-ylamino)-3-methoxy-N-(1-methylazetidin-3-yl)benzamide] is lower in Ki: 10 to 100 nM for the first, < 10 nM for the second.

`COc1cc(C(=O)NN2CCCC2)ccc1Nc1ncc2c(n1)N(C1CCCC1)CC1(CC1)C(=O)N2C` [Compound I-253, 4-(9′-cyclopentyl-5′-methyl-6′-oxo-5′,6′,8′,9′-tetrahydrospiro[cyclopropane-1,7′-pyrimido[4,5-b][1,4]diazepine]-2′-ylamino)-3-methoxy-N-(pyrrolidin-1-yl)benzamide] and `CNC(=O)c1ccc(Nc2ncc3c(n2)N(C2CCCC2)CC2(CC2)C(=O)N3C)c(OC)c1` [Compound I-62, 4-(9′-cyclopentyl-5′-methyl-6′-oxo-5′,6′,8′,9′-tetrahydrospiro[cyclopropane-1,7′-pyrimido[4,5-b][1,4]diazepine]-2′-ylamino)-3-methoxy-N-methylbenzamide] cannot be ordered by Ki: < 10 nM for the first, < 10 nM for the second.

`COc1ccc(CNC(=O)c2ccc(Nc3ncc4c(n3)N(C3CCCC3)CC(C)(C)C(=O)N4C)c(OC)c2)cc1` [Compound I-213, 4-(9-cyclopentyl-5,7,7-trimethyl-6-oxo-6,7,8,9-tetrahydro-5H-pyrimido[4,5-b][1,4]diazepin-2-ylamino)-3-methoxy-N-(4-methoxybenzyl)benzamide] and `COc1cc(C(=O)N[C@H](C)c2ccccc2)ccc1Nc1ncc2c(n1)N(C1CCCC1)CC(C)(C)C(=O)N2C` [Compound I-226, (R)-4-(9-cyclopentyl-5,7,7-trimethyl-6-oxo-6,7,8,9-tetrahydro-5H-pyrimido[4,5-b][1,4]diazepin-2-ylamino)-3-methoxy-N-(1-phenylethyl)benzamide] cannot be ordered by Ki: < 10 nM for the first, < 10 nM for the second.

`CCc1cc(C(=O)NC)ccc1Nc1ncc2c(n1)N(C1CCCC1)CC(C)(C)C(=O)N2C` [Compound I-118, 4-(9-cyclopentyl-6,7,8,9-tetrahydro-5,7,7-trimethyl-6-oxo-5H-pyrimido[4,5-b][1,4]diazepin-2-ylamino)-3-ethyl-N-methylbenzamide] and `CNC(=O)c1ccc(Nc2ncc3c(n2)N(C2CC(F)(F)C2)CC(C)(C)C(=O)N3C)c(OC)c1` [Compound I-170, 4-(9-(3,3-difluorocyclobutyl)-6,7,8,9-tetrahydro-5,7,7-trimethyl-6-oxo-5H-pyrimido[4,5-b][1,4]diazepin-2-ylamino)-3-methoxy-N-methylbenzamide] cannot be ordered by Ki: < 10 nM for the first, < 10 nM for the second.

`CN1C(=O)C(C)(C)CN(C2CCCC2)c2nc(Nc3cccc(N)c3)ncc21` [Compound I-116, 2-(3-aminophenylamino)-9-cyclopentyl-8,9-dihydro-5,7,7-trimethyl-5H-pyrimido[4,5-b][1,4]diazepin-6(7H)-one] and `CN1C(=O)C(C)(C)CN(C2CCCC2)c2nc(Nc3ccc4[nH][nH]c(=O)c4c3)ncc21` [Compound I-109, 2-(2,3-dihydro-3-oxo-1H-indazol-5-ylamino)-9-cyclopentyl-8,9-dihydro-5,7,7-trimethyl-5H-pyrimido[4,5-b][1,4]diazepin-6(7H)-one] fall in the same range of Ki: 10 to 100 nM for the first, 10 to 100 nM for the second.

`COc1cc(C(=O)NC2CC(F)(F)C2)ccc1Nc1ncc2c(n1)N(C1CCCC1)CC1(CC1)C(=O)N2C` [Compound I-269, 4-(9′-cyclopentyl-5′-methyl-6′-oxo-5′,6′,8′,9′-tetrahydrospiro[cyclopropane-1,7′-pyrimido[4,5-b][1,4]diazepine]-2′-ylamino)-N-(3,3-difluorocyclobutyl)-3-methoxybenzamide] and `COc1cc(C(=O)N[C@H]2CC[C@H](O)CC2)ccc1Nc1ncc2c(n1)N(C1CCCC1)CC1(CC1)C(=O)N2C` [Compound I-251, 4-(9′-cyclopentyl-5′-methyl-6′-oxo-5′,6′,8′,9′-tetrahydrospiro[cyclopropane-1,7′-pyrimido[4,5-b][1,4]diazepine]-2′-ylamino)-N-((1R,4R)-4-hydroxycyclohexyl)-3-methoxybenzamide] cannot be ordered by Ki: < 10 nM for the first, < 10 nM for the second.

`COc1cc(C(=O)NC(C)C)ccc1Nc1ncc2c(n1)N(C1CCCC1)CC1(CC1)C(=O)N2C` [Compound I-263, 4-(9′-cyclopentyl-5′-methyl-6′-oxo-5′,6′,8′,9′-tetrahydrospiro[cyclopropane-1,7′-pyrimido[4,5-b][1,4]diazepine]-2′-ylamino)-N-isopropyl-3-methoxybenzamide] and `COc1cc(C(=O)NCCCO)ccc1Nc1ncc2c(n1)N(C1CCCC1)CC1(CC1)C(=O)N2C` [Compound I-262, 4-(9′-cyclopentyl-5′-methyl-6′-oxo-5′,6′,8′,9′-tetrahydrospiro[cyclopropane-1,7′-pyrimido[4,5-b][1,4]diazepine]-2′-ylamino)-N-(3-hydroxypropyl)-3-methoxybenzamide] cannot be ordered by Ki: < 10 nM for the first, < 10 nM for the second.

`COc1cc(C2=NCCN2)ccc1Nc1ncc2c(n1)N(C1CCCC1)CC(C)(C)C(=O)N2C` [Compound I-256, 9-cyclopentyl-2-(4-(4,5-dihydro-1H-imidazol-2-yl)-2-methoxyphenylamino)-5,7,7-trimethyl-8,9-dihydro-5H-pyrimido[4,5-b][1,4]diazepin-6(7H)-one] and `CN1C(=O)C(C)(C)CN(C2CCCC2)c2nc(Nc3ccc(-c4cc[nH]n4)cc3)ncc21` [Compound I-99, 2-(4-(1H-pyrazol-3-yl)phenylamino)-9-cyclopentyl-8,9-dihydro-5,7,7-trimethyl-5H-pyrimido[4,5-b][1,4]diazepin-6(7H)-one] cannot be ordered by Ki: < 10 nM for the first, < 10 nM for the second.

Compared with `COc1cc(C(=O)NC[C@@H]2CCCC[C@@H]2O)ccc1Nc1ncc2c(n1)N(C1CCCC1)CC1(CC1)C(=O)N2C` [Compound I-252, 4-(9′-cyclopentyl-5′-methyl-6′-oxo-5′,6′,8′,9′-tetrahydrospiro[cyclopropane-1,7′-pyrimido[4,5-b][1,4]diazepine]-2′-ylamino)-N-(((1S,2S)-2-hydroxycyclohexyl)methyl)-3-methoxybenzamide], `COc1cc(C(=O)N2CCNCC2)ccc1Nc1ncc2c(n1)N(C1CCCC1)CCC(=O)N2C` [Compound I-8, 4-(9-cyclopentyl-6,7,8,9-tetrahydro-5-methyl-6-oxo-5H-pyrimido[4,5-b][1,4]diazepin-2-ylamino)-3-methoxyphenyl(piperazin-1-yl)methanone] is higher in Ki: < 10 nM for the first, 10 to 100 nM for the second.

`CN1C(=O)C(C)(C)CN(C2CCCC2)c2nc(Nc3cccn4ncnc34)ncc21` [Compound I-92, 2-([1,2,4]triazolo[1,5-a]pyridin-8-ylamino)-9-cyclopentyl-8,9-dihydro-5,7,7-trimethyl-5H-pyrimido[4,5-b][1,4]diazepin-6(7H)-one] and `Cc1cc(O)n(-c2ccc(Nc3ncc4c(n3)N(C3CCCC3)CC(C)(C)C(=O)N4C)cc2)n1` [Compound I-98, 2-(4-(5-hydroxy-3-methyl-1H-pyrazol-1-yl)phenylamino)-9-cyclopentyl-8,9-dihydro-5,7,7-trimethyl-5H-pyrimido[4,5-b][1,4]diazepin-6(7H)-one] fall in the same range of Ki: 10 to 100 nM for the first, 10 to 100 nM for the second.

For `CNC(=O)c1ccc(Nc2ncc3c(n2)N(c2ccccc2)CC(C)(C)C(=O)N3C)c(OC)c1` [Compound I-40, 4-(6,7,8,9-tetrahydro-5,7,7-trimethyl-6-oxo-9-phenyl-5H-pyrimido[4,5-b][1,4]diazepin-2-ylamino)-3-methoxy-N-methylbenzamide], the Ki was 10 to 100 nM.

The compounds below were run against T1, Plk1 (assay: Plk1 inhibition assay (radioactive-phosphate incorporation)). Settings: Plk1 radioactive incorporation assay conditions.

`CNC(=O)c1ccc(Nc2ncc3c(n2)N(C2CCCC2)CC(C)(C)C(=O)N3C)c(OC(F)(F)F)c1` [Compound I-142, 4-(9-Cyclopentyl-6,7,8,9-tetrahydro-5,7,7-trimethyl-6-oxo-5H-pyrimido[4,5-b][1,4]diazepin-2-ylamino)-N-methyl-3-(trifluoromethoxy)benzamide] was tested, and the “solubility under the Plk1 assay conditions” value was “not soluble under the assay conditions”.
For `CNC(=O)c1ccc(Nc2ncc3c(n2)N(C2CCCC2)CC(C)(C)C(=O)N3C)nc1` [Compound I-126, 6-(9-cyclopentyl-6,7,8,9-tetrahydro-5,7,7-trimethyl-6-oxo-5H-pyrimido[4,5-b][1,4]diazepin-2-ylamino)-N-methylpyridine-3-carboxamide], the “solubility under the Plk1 assay conditions” value was “not soluble under the assay conditions”.

Same assay, conditions: test compound typically starting from 10 μM

In the case of `CCOC(=O)N1CCC(Nc2ncc3c(n2)N(C2CCCC2)CCC(=O)N3C)CC1` [Compound I-13, Ethyl 4-(9-cyclopentyl-6,7,8,9-tetrahydro-5-methyl-6-oxo-5H-pyrimido[4,5-b][1,4]diazepin-2-ylamino)piperidin-1-carboxylate], the “activity in the Plk1 radioactive incorporation assay (in words)” value is reported as “not active within the limits of the assay”.
With `COc1cc(C(=O)O)ccc1Oc1ncc2c(n1)N(C1CCCC1)CC(C)(C)C(=O)N2C` [Compound I-107, 4-(9-cyclopentyl-6,7,8,9-tetrahydro-5,7,7-trimethyl-6-oxo-5H-pyrimido[4,5-b][1,4]diazepin-2-yloxy)-3-methoxybenzoic acid] the “activity in the Plk1 radioactive incorporation assay (in words)” value was “not active within the limits of the assay”.
